In publication PMC7059793, “Novel Chemical Scaffolds to Inhibit the Neutral Amino Acid Transporter B^0AT1 (SLC6A19), a Potential Target to Treat Metabolic Diseases” (Frontiers in Pharmacology, 2020):

How the values were obtained:
B^0AT1 [1] = molecular target: T1, B^0AT1 (Homo sapiens, UniProt Q695T7); assay: Membrane potential detecting FLIPR assay in CHO-BC cells; assay type: cell-based; conditions: 30 min pre-incubation, leucine or isoleucine 1.5 mM
T1 construct: expressed in transfected cells
T1 sequence (Q695T7 1-634): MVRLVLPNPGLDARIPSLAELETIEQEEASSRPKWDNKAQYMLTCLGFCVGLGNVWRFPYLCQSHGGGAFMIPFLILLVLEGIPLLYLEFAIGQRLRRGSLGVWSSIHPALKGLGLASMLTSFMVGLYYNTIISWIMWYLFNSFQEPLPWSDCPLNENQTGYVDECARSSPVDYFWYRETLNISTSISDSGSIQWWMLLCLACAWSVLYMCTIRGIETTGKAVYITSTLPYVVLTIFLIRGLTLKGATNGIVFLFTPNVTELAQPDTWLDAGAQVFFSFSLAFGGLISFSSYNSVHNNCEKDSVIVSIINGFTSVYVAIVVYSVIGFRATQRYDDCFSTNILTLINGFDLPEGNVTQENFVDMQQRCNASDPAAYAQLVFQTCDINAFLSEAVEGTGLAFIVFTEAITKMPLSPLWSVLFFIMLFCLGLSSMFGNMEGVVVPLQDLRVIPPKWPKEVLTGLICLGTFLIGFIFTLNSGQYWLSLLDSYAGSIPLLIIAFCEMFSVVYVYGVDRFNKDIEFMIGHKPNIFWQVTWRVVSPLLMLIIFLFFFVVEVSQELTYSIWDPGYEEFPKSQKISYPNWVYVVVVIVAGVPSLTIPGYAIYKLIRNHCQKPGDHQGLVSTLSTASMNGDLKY
T1 sequence (Q9HBJ8 15-222 partner): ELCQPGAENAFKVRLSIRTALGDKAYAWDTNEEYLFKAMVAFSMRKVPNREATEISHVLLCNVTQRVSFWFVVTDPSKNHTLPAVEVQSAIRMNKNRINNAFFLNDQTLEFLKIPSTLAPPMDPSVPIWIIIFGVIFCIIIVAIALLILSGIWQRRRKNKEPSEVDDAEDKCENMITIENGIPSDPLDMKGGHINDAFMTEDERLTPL
Description: CHO-B^0AT1-collectrin Cells (CHO-BC) were generated, cultured, and used as described recently ([Cheng et al., 2017]). Expression levels of B^0AT1 in CHO-BC cells decline over time. As a result, passages <10 were used for experiments. The cells were maintained in Ham’s F-12 glutamax media with 10% (v/v) fetal bovine serum (FBS, Heat inactivated, 10082147 Gibco), 1mM glutamine, 300μg/ml hygromycin B and 275 μg/ml geneticin.
Membrane depolarisation induced by amino acid transport was monitored using a FLIPR® kit (Molecular Devices, R8042 BLUE DYE). Before the assay, CHO-BC cells were seeded out at a density of 60,000 cells/well and maintained in a flat transparent bottom 96-well plate (Corning) overnight. After washing three times with Hank’s balanced salt solution (136.6 mM NaCl, 5.4 mM KCl, 0.44 mM KH2PO4, 2.7mM Na2HPO4, 1.26mM CaCl2, 0.5mM MgCl2, 0.4 mM MgSO4, 10mM HEPES, pH 7.5, supplemented with 5 mM glucose, abbreviated HBSS + G), cells in each well were incubated for 30 min at room temperature in 50 µl of HBSS pH 7.5 containing 5 mM glucose and compounds as indicated, together with 50 µl of dye-loading buffer provided with the kit. Subsequently, the fluorescence signal was detected every 10 s before and after the addition of leucine or isoleucine at a final concentration of 1.5 mM. Fluorescence was detected at room temperature using a PerkinElmer multimode Plate Reader, with an excitation wavelength of 530 nm and emission wavelength of 565 nm.
Data are shown as mean ± S.D., transport activities indicated as Na^+-dependent net uptake, were calculated by subtracting the uptake activity in the absence of Na^+ from the total uptake rate. The fluorescent signals measured in the FLIPR assay were normalized to baseline readings before the addition of substrates. Data are presented as percentage of baseline at each time point. IC50 was calculated using the equation: y=ymax(1−[x]/[x]+IC50) .

B^0AT1 [2] = molecular target: T2, B^0AT1 (Mus musculus, UniProt Q9D687); assay: Na+-dependent leucine uptake in inverted sections of mouse intestine; conditions: 50 μM inhibitor, 150 μM [14C]leucine
T2 construct: from tissue; host or cells: small intestine of C57/BL6J female mice, inverted 1 cm sections
From the text: For uptake assays with inverted sections of mouse small intestine, 5–7 months old C57/BL6J female mice were sacrificed by cervical dislocation (Animal ethics protocol A2016/41, Australian National University). The small intestine was removed and the intestinal lumen was rinsed with ice-cold 0.9% NaCl. Subsequently, the small intestine was inverted on a metal rod to expose the mucosa. The inverted intestine was then cut into 1 cm pieces and fitted onto enzyme spatulas, which were immersed in HBSS pH 7.5 supplemented with 1 mM glutamine and protease inhibitor (Roche Complete). After washing twice in modified HBSS pH 7.5 (containing 10% NaCl + 90% NMDG-Cl for Na^+-dependent uptake and 100% NMDG-Cl for Na^+-independent uptake, both buffers supplemented with 1 mM glutamine) to remove residual compounds, the segments were pre-incubated in the same buffer in the presence of 50 µM of transport inhibitor and protease inhibitors for 15 min. At the end of the pre-incubation, the segments were transferred for 30 s into uptake buffer at 37°C (HBSS pH 7.5 supplemented with 150 μM [^14C]leucine and 50 µM transport inhibitor). For Na^+-dependent uptake regular HBSS was used, for Na^+-independent uptake NaCl was replaced by NMDG-Cl. Subsequently, the segments were rinsed three times in ice-cold HBSS pH 7.5 and lysed in 400 µl of 10% SDS. After 2–3 h, the lysed tissues were analyzed by scintillation counting.
To test whether the novel B^0AT1 inhibitors block the transporter in a more physiological environment, we studied leucine uptake in inverted sections of mouse intestine ( Figure 6C ). We established previously that Na^+-dependent leucine uptake (blue bars) in this system is mediated by B^0AT1 ([Broer et al., 2011]). In addition leucine uptake has a Na^+-independent transport component (salmon coloured bars), which is most likely mediated by rbat/b^0,+AT. Because of variability between animals, all data were normalized to uninhibited controls from the same animal.

T2 sequence (Q9D687 whole entry): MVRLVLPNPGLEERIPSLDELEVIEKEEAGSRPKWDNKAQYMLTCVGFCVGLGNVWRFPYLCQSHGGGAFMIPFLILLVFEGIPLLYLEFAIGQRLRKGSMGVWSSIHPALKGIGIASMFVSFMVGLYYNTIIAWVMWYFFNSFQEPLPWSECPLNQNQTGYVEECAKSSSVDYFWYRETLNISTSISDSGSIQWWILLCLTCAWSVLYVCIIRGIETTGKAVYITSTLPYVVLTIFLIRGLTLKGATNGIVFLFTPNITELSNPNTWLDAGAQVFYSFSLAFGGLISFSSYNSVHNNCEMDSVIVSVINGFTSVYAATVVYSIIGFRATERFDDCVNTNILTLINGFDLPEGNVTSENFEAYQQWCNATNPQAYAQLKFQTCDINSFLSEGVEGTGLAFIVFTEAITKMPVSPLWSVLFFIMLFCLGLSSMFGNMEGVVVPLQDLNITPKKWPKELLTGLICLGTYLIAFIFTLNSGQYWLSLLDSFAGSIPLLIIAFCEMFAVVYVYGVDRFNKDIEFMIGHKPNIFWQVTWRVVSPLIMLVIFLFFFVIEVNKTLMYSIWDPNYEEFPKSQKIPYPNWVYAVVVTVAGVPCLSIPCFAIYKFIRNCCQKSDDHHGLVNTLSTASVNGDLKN
T2 sequence (Q8R0I0 18-805 partner): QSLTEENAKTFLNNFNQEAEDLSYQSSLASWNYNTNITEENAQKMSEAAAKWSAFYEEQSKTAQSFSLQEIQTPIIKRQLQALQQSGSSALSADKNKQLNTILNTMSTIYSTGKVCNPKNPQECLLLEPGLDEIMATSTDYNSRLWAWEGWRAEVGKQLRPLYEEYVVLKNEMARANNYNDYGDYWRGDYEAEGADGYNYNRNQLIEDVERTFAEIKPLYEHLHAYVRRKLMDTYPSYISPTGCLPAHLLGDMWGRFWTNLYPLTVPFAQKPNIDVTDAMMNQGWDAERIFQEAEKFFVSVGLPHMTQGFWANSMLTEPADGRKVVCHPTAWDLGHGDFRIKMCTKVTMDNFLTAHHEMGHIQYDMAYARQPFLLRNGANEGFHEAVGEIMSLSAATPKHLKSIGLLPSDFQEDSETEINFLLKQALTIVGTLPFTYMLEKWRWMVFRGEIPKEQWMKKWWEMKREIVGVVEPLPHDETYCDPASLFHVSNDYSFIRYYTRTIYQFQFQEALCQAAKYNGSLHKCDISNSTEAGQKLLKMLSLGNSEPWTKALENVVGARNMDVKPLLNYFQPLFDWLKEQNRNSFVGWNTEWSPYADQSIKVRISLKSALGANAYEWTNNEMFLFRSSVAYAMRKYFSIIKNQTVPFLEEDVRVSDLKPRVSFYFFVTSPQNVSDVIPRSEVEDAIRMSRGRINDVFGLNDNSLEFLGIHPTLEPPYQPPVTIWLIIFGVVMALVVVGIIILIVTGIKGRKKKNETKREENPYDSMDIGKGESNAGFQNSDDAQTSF

IC50 (B^0AT1 [1]) [µM] | Inhibition of Na+-dependent leucine uptake (B^0AT1) ex vivo (B^0AT1 [2]) | SMILES
1.9 ± 0.6 | more potent | Cc1cc(C(=O)Nc2ccc(Cl)cc2C(F)(F)F)no1 [CB3]
13.7 ± 0.9 | limited capacity to inhibit B^0AT1 | Cc1cc(OCC(=O)NC(C)C)cc(C)c1Cl [Compound E4]
4.2 ± 0.9 | more potent | COc1ccccc1Nc1nc2ccccc2s1 [Compound E18]
